How the values were obtained:
Assay in all cases: IC50 for competition of protein binding to Kinobeads
Details in all cases: assay detail: Kinobeads competition in P. falciparum blood-stage lysate
[1] = biological target: UniProt Q8IM27
[2] = biological target: UniProt Q8IC06
[3] = biological target: UniProt Q8I3X2
[4] = biological target: UniProt Q7KQL3
[5] = biological target: UniProt Q8IM10
[6] = biological target: UniProt C0H5C2
[7] = biological target: UniProt Q8IB73
[8] = biological target: UniProt Q8I5F9
[9] = biological target: UniProt Q8IKK7
[10] = biological target: UniProt Q8IJX8
[11] = biological target: UniProt Q8IBQ9
[12] = biological target: UniProt C6KT23
[13] = biological target: UniProt Q8I5X7
[14] = biological target: UniProt C0H4K6
[15] = biological target: UniProt Q8IBS5
[16] = biological target: UniProt Q8I502
[17] = biological target: UniProt Q8IIV2
[18] = biological target: UniProt Q8I5V9
[19] = biological target: UniProt Q8ILZ7
[20] = biological target: UniProt Q8IJA4
[21] = biological target: UniProt Q8ILK2
[22] = biological target: UniProt Q8I3Y9
[23] = biological target: UniProt Q8II73
[24] = biological target: UniProt C6KT19
[25] = biological target: UniProt O77323
[26] = biological target: UniProt O97231
[27] = biological target: UniProt Q8I468
[28] = biological target: UniProt Q8I395
[29] = biological target: UniProt C0H4S5
[30] = biological target: UniProt Q8ILK1
[31] = biological target: UniProt Q8ILR7
[32] = biological target: UniProt Q76NM3
[33] = biological target: UniProt Q8I3F1
[34] = biological target: UniProt Q8I1V0
[35] = biological target: UniProt C6S3E1
[36] = biological target: UniProt Q8IAW0
[37] = biological target: UniProt A0A144A2H0
[38] = biological target: UniProt Q8I423
[39] = biological target: UniProt Q8IM66
[40] = biological target: UniProt C6KSV2
[41] = biological target: UniProt Q8I5C6
[42] = biological target: UniProt C0H4Z7
[43] = biological target: UniProt Q7K6A5
[44] = biological target: UniProt Q8I2Z8
[45] = biological target: UniProt O96153
[46] = biological target: UniProt O97282
[47] = biological target: UniProt C6KT50
[48] = biological target: UniProt Q8IBM9
[49] = biological target: UniProt Q8IBQ6
[50] = biological target: UniProt Q8IKI9
[51] = biological target: UniProt Q8IE43

Measured: IC50
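Further: native unpurified kinases from lysate captured on beads bearing immobilized kinase inhibitors, with bead-bound kinases quantified by mass spectrometry across compound doses.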

Chain of UniProt Q8I395 (Q8I395 whole entry): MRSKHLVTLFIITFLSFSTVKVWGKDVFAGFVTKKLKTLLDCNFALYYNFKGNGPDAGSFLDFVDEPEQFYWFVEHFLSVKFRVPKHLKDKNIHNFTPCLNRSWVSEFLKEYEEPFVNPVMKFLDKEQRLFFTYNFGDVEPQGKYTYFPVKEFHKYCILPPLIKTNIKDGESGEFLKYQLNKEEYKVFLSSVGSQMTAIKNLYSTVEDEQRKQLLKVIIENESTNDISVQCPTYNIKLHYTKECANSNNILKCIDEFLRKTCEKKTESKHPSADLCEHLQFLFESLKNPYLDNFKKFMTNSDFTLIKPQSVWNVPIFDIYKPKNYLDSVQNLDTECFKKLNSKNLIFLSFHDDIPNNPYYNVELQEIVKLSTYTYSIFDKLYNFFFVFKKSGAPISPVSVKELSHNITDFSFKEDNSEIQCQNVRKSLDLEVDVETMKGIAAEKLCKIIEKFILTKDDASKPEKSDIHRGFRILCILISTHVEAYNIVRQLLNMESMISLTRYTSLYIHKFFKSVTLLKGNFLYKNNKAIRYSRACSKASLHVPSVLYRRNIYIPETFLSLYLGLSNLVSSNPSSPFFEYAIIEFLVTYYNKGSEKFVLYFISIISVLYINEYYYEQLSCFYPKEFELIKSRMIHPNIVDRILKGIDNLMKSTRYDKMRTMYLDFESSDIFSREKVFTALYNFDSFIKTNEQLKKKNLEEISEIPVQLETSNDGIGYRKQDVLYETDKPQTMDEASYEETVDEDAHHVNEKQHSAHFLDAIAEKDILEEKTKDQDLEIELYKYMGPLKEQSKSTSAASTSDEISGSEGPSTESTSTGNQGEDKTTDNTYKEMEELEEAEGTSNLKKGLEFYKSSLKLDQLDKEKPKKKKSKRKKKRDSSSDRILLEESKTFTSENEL
Chain of UniProt Q7KQL3 (Q7KQL3 whole entry): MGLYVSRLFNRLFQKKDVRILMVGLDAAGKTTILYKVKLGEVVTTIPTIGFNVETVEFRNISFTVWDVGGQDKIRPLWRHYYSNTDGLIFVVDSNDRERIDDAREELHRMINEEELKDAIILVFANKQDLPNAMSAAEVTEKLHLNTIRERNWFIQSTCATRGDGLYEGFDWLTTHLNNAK
Chain of UniProt Q7K6A5 (Q7K6A5 whole entry): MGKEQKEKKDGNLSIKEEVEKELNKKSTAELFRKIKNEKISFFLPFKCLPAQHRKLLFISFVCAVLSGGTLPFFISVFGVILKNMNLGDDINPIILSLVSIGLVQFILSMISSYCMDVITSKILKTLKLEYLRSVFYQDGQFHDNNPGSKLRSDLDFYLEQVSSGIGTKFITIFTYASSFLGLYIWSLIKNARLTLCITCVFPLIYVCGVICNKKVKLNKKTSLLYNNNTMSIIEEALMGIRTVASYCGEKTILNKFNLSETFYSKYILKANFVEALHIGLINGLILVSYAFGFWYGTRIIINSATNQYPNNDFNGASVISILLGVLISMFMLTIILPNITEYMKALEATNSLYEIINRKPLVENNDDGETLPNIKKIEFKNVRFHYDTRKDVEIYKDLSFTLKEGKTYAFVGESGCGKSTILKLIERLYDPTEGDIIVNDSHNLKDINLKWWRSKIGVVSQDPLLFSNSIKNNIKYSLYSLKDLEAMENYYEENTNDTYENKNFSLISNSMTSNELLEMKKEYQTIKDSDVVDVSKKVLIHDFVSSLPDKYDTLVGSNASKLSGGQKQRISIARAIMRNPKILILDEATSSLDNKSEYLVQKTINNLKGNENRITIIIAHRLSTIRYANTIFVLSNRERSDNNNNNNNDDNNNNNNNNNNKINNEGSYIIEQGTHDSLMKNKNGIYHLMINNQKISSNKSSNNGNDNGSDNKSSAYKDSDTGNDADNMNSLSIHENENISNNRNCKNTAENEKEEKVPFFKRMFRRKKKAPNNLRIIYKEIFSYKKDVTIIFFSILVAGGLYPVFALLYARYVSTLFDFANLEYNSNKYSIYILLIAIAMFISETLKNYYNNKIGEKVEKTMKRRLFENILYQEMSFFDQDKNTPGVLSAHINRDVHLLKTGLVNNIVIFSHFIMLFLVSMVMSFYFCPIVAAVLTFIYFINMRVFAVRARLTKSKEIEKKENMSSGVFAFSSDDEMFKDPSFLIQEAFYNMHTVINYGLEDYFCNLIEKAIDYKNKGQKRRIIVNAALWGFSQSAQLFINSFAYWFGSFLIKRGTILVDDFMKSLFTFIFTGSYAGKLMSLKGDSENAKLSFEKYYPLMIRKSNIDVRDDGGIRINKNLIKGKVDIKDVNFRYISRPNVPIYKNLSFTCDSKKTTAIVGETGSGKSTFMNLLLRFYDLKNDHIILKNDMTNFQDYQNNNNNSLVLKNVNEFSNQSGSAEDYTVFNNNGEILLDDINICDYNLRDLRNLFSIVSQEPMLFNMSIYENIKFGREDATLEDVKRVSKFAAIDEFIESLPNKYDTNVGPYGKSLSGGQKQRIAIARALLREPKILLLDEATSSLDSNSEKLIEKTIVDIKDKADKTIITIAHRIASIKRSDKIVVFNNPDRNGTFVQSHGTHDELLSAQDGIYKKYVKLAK
Chain of UniProt A0A144A2H0 (A0A144A2H0 whole entry): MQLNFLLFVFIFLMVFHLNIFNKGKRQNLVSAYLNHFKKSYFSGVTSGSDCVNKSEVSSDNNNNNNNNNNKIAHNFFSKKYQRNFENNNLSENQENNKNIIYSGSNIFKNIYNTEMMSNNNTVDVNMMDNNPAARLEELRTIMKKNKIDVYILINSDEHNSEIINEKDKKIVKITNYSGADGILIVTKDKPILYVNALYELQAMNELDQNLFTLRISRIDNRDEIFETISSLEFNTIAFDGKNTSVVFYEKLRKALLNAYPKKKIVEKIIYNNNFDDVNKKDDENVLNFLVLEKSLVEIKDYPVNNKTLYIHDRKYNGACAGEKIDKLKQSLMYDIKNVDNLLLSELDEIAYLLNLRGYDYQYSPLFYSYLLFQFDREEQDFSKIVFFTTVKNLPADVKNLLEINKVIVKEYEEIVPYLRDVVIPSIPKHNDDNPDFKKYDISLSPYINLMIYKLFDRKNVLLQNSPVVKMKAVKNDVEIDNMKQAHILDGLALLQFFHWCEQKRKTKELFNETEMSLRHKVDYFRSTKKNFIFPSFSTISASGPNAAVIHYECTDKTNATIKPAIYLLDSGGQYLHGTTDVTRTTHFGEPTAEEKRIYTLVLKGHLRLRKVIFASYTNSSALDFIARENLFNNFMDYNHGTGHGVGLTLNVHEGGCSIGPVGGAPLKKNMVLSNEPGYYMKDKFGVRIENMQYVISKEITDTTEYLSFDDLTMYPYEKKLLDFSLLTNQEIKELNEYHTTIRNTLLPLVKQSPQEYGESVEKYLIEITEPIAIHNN
Chain of UniProt C6KT50 (C6KT50 whole entry): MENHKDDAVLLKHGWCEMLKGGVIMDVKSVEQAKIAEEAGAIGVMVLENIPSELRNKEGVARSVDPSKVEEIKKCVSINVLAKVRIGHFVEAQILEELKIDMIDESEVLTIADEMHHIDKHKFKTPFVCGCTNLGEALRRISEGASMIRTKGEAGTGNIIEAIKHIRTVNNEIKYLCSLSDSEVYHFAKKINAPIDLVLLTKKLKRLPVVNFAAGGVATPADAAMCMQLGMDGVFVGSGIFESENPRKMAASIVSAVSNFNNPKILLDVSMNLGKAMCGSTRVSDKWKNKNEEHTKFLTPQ
Chain of UniProt Q8I423 (Q8I423 whole entry): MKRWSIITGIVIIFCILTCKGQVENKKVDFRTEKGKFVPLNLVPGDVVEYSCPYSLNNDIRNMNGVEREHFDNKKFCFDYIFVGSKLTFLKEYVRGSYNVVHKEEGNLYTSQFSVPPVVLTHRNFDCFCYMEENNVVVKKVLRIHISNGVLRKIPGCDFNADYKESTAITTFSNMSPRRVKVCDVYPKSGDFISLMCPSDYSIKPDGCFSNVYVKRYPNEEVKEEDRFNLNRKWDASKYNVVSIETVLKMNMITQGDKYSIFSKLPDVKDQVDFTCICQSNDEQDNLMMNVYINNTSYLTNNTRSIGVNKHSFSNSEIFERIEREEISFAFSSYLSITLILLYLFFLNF
Chain of UniProt O97231 (O97231 whole entry): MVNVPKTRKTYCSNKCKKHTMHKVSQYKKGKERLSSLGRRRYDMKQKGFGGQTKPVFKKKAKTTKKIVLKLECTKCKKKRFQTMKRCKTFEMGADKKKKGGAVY
Chain of UniProt O77323 (O77323 whole entry): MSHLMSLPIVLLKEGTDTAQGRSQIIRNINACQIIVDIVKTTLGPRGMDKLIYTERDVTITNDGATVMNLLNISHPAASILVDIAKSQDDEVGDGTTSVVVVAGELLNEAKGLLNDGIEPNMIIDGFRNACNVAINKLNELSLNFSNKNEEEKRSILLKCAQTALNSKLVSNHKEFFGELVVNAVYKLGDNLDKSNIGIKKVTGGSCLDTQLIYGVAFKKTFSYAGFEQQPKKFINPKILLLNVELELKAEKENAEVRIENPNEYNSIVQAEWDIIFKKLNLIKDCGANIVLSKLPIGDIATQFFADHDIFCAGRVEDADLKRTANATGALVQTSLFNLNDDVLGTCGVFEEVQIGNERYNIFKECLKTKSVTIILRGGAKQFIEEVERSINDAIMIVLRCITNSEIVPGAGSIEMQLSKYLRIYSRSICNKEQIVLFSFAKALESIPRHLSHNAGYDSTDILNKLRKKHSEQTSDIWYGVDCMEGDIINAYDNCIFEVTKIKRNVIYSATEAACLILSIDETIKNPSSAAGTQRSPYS
Chain of UniProt Q8IJX8 (Q8IJX8 whole entry): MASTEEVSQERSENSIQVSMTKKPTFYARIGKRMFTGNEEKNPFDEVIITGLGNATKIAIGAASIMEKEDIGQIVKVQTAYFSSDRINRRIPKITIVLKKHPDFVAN

O=c1[nH]c2ccc(Cl)cc2c(NC2CN3CCC2CC3)c1-c1nc2ccccc2[nH]1 (stereo unspecified) [CHIR-124]
> 20 µM: [1] | [2] | [3] | [4] | [5] | [6] | [7] | [8] | [9] | [10] | [11] | [12] | [13] | [14] | [15] | [16] | [17] | [18] | [19] | [20] | [21] | [22] | [23] | [24] | [25] | [26] | [27] | [28] | [29] | [30] | [31] | [32] | [33] | [34] | [35] | [36] | [37] | [38] | [39] | [40] | [41] | [42] | [43] | [44] | [45] | [46] | [47] | [48] | [49] | [50] | [51]

— the supplement of paper PMC13386468
